Earlier results in US20250347706A1, “DISPOSABLE CARTRIDGE FOR CLASSIFICATION OF ANTICOAGULANT AND METHOD OF USE” (Haemonetics Corporation, priority 2023, published 2025).

Details: for half-life compared with dabigatran: in vivo

Which “half-life compared with dabigatran” value does the source give for `COc1ccc(-n2nc(C(N)=O)c3c2C(=O)N(c2ccc(N4CCCCC4=O)cc2)CC3)cc1` [apixaban] here?
The value was “shorter half-lives than dabigatran”.

And the increased half-life (patients with severe renal impairment compared to healthy volunteers (Dager et al.))?
The increased half-life was “up to 44%”.

For `O=C(NC[C@H]1CN(c2ccc(N3CCOCC3=O)cc2)C(=O)O1)c1ccc(Cl)s1` [rivaroxaban], which “half-life compared with dabigatran” value is on record?
Its value is “shorter half-lives than dabigatran”.

For dabigatran, which half-life (lengthened in patients with renal dysfunction, Pradaxa product information) is on record?
The half-life was 12 to 17 h.
